Experimental data from patent US20160022684A1, “BET INHIBITOR AND BRUTON'S TYROSINE KINASE INHIBITOR COMBINATIONS” (Pharmacyclics LLC, priority 2014, published 2016).

Tests used:
Format in all cases: cell-based
SU-DHL-2 = experiment: Combined drug treatment cell viability (CellTiter-Glo), ibrutinib with BET inhibitors, SU-DHL-2; settings: JQ1 100 nM, 3 days
Protocol: (§1) The DLBCL cell lines used during the experiments included TMD8, OCI-LY3, OCI-LY10, U-2932 and SU-DHL-2. DLBCL cells at either 1×10^4 cells or 2×10^4 cells were plated onto each well of a 96-W plate (Table 1). […] The 96-W plate was then incubated for 3 days. Cell viability was examined using a CellTiter-Glo assay. A 40 μL of CellTiter-Glo reagent was added directly into each well of the 96-W plate. The plate was then shaken on a Shaker ([…]) at speed 5 for 10-20 min at room temperature. Next, about 100 μL of the mixed medium was transferred to a white, non-transparent, flat bottom 96-W plate for assaying. […] Measurements were taken at room temperature. CellTiter-Glow reagents were thawed prior to use. Cells pre-plated onto a second 96-W plate and incubated at room temperature for 30 minutes were used for calibration purposes. […] CI is a quantitative description of the interaction property of the combination of two drugs.

TMD8 = experiment: Combined drug treatment cell viability (CellTiter-Glo), ibrutinib with BET inhibitors, TMD8; settings: JQ1 20 nM, 3 days
Protocol: as §1

U-2932 = experiment: Combined drug treatment cell viability (CellTiter-Glo), ibrutinib with BET inhibitors, U-2932; settings: U2932, JQ1 20 nM, 3 days
Protocol: as §1

OCI-LY10 = experiment: Combined drug treatment cell viability (CellTiter-Glo), ibrutinib with BET inhibitors, OCI-LY10; settings: OCI-LY-10, JQ1 1 uM, 3 days
Protocol: as §1

OCI-LY3 = experiment: Combined drug treatment cell viability (CellTiter-Glo), ibrutinib with BET inhibitors, OCI-LY3; settings: OCI-LY-3, JQ1 1 uM, 3 days
Protocol: as §1

[1] = ibrutinib 0 nM (BET inhibitor alone): I-BET151 5 uM, OTX015 1 uM
[2] = ibrutinib 0.0256 nM with I-BET151 5 uM, OTX015 1 uM or medium alone (row)
[3] = ibrutinib 0.64 nM with I-BET151 5 uM, OTX015 1 uM or medium alone (row)
[4] = ibrutinib 3.2 nM with I-BET151 5 uM, OTX015 1 uM or medium alone (row)
[5] = ibrutinib 16 nM with I-BET151 5 uM, OTX015 1 uM or medium alone (row)
[6] = ibrutinib 80 nM with I-BET151 5 uM, OTX015 1 uM or medium alone (row)
[7] = ibrutinib 400 nM with I-BET151 5 uM, OTX015 1 uM or medium alone (row)
[8] = ibrutinib 2000 nM with I-BET151 5 uM, OTX015 1 uM or medium alone (row)
[9] = ibrutinib 10000 nM with I-BET151 5 uM, OTX015 1 uM or medium alone (row)
[10] = ibrutinib […] with I-BET151 5 uM, OTX015 1 uM or medium alone (row)

SMILES: Cc1sc2c(c1C)C(c1ccc(Cl)cc1)=N[C@@H](CC(=O)Nc1ccc(O)cc1)c1nnc(C)n1-2 [OTX015]
- luminescent signals (SU-DHL-2; ibrutinib 0 nM (BET inhibitor alone): I-BET151 2 uM, OTX015 1 uM (Table 2)): 945.707
- luminescent signals (SU-DHL-2; ibrutinib 0.0256 nM with I-BET151 2 uM, OTX015 1 uM (Table 2) or medium alone (row)): 1016.636
- luminescent signals (SU-DHL-2; ibrutinib 10000 nM with I-BET151 2 uM, OTX015 1 uM (Table 2) or medium alone (row)): 782.836
- luminescent signals (SU-DHL-2; ibrutinib […] with I-BET151 2 uM, OTX015 1 uM (Table 2) or medium alone (row)): 1087.564
- luminescent signals (TMD8; ibrutinib 0 nM (BET inhibitor alone): I-BET151 200 nM, OTX015 100 nM): 47319.47
- luminescent signals (TMD8; ibrutinib 0.0256 nM with I-BET151 200 nM, OTX015 100 nM or medium alone (row)): 11004.22
- luminescent signals (TMD8; ibrutinib 0.64 nM with I-BET151 200 nM, OTX015 100 nM or medium alone (row)): 9847.13
- luminescent signals (TMD8; ibrutinib 3.2 nM with I-BET151 200 nM, OTX015 100 nM or medium alone (row)): 9773.329
- luminescent signals (TMD8; ibrutinib 16 nM with I-BET151 200 nM, OTX015 100 nM or medium alone (row)): 9272.538
- luminescent signals (TMD8; ibrutinib 80 nM with I-BET151 200 nM, OTX015 100 nM or medium alone (row)): 9472.854
- luminescent signals (TMD8; ibrutinib 400 nM with I-BET151 200 nM, OTX015 100 nM or medium alone (row)): 9301.531
- luminescent signals (TMD8; ibrutinib 2000 nM with I-BET151 200 nM, OTX015 100 nM or medium alone (row)): 10927.78
- luminescent signals (TMD8; ibrutinib 10000 nM with I-BET151 200 nM, OTX015 100 nM or medium alone (row)): 7055.879
- luminescent signals (TMD8; ibrutinib […] with I-BET151 200 nM, OTX015 100 nM or medium alone (row)): 11191.36
- luminescent signals (U-2932; ibrutinib 0 nM (BET inhibitor alone): I-BET151 200 nM, OTX015 50 nM (Table 2)): 55416.46
- luminescent signals (U-2932; ibrutinib 0.0256 nM with I-BET151 200 nM, OTX015 50 nM (Table 2) or medium alone (row)): 53427.04
- luminescent signals (U-2932; ibrutinib 0.64 nM with I-BET151 200 nM, OTX015 50 nM (Table 2) or medium alone (row)): 50299.31
- luminescent signals (U-2932; ibrutinib 3.2 nM with I-BET151 200 nM, OTX015 50 nM (Table 2) or medium alone (row)): 45013.52
- luminescent signals (U-2932; ibrutinib 16 nM with I-BET151 200 nM, OTX015 50 nM (Table 2) or medium alone (row)): 49095.12
- luminescent signals (U-2932; ibrutinib 80 nM with I-BET151 200 nM, OTX015 50 nM (Table 2) or medium alone (row)): 44565.57
- luminescent signals (U-2932; ibrutinib 400 nM with I-BET151 200 nM, OTX015 50 nM (Table 2) or medium alone (row)): 48570.75
- luminescent signals (U-2932; ibrutinib 2000 nM with I-BET151 200 nM, OTX015 50 nM (Table 2) or medium alone (row)): 44022.77
- luminescent signals (U-2932; ibrutinib 10000 nM with I-BET151 200 nM, OTX015 50 nM (Table 2) or medium alone (row)): 33140.26
- luminescent signals (U-2932; ibrutinib […] with I-BET151 200 nM, OTX015 50 nM (Table 2) or medium alone (row)): 51182.03
- luminescent signals (OCI-LY10; [1]): 45142.68
- luminescent signals (OCI-LY10; [2]): 42481.51
- luminescent signals (OCI-LY10; [3]): 40790.66
- luminescent signals (OCI-LY10; [4]): 33872.14
- luminescent signals (OCI-LY10; [5]): 29764.67
- luminescent signals (OCI-LY10; [6]): 25880.72
- luminescent signals (OCI-LY10; [7]): 25433.68
- luminescent signals (OCI-LY10; [8]): 24952.47
- luminescent signals (OCI-LY10; [9]): 23945.32
- luminescent signals (OCI-LY10; [10]): 42647.18
- luminescent signals (OCI-LY3; [1]): 12422.08
- luminescent signals (OCI-LY3; [2]): 14387.47
- luminescent signals (OCI-LY3; [3]): 13925.64
- luminescent signals (OCI-LY3; [4]): 14043.72
- luminescent signals (OCI-LY3; [5]): 13776.07
- luminescent signals (OCI-LY3; [6]): 14290.38
- luminescent signals (OCI-LY3; [7]): 15615.51
- luminescent signals (OCI-LY3; [8]): 15793.94
- luminescent signals (OCI-LY3; [9]): 14418.95
- luminescent signals (OCI-LY3; [10]): 12918.02
